Read-outs that look alike come from different tables or passages of the source.
System: cancer cell lines
Experiment: Cancer cell proliferation activity (CellTiterGlo, 72 h)
Type: cell-based
Conditions: 72 h, 72 h, read-out: IC50 cell proliferation
How it was run: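 Readout is CellTiterGlo luminescence after 72 h compound exposure (0.1% DMSO final), started one day post-seeding, at 37 °C.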

- IC50 (5637 (bladder)): > 50 µM
- IC50 (CLS439 (bladder)): > 50 µM
- IC50 (HS729 (muscle)): 5.86 µM
- IC50 (J82 (bladder)): 5.54 µM
- IC50 (JAR (placenta)): > 50 µM
- IC50 (MT3 (breast)): 0.58 µM
- IC50 (PANCI (pancreas)): 3.6 µM
- IC50 (PC3 (prostate)): 2.04 µM
- IC50 (RD (muscle)): > 50 µM
- IC50 (T24 (bladder)): 2.32 µM
- IC50 (Homo sapiens, 22Rv1, 72 h, 22RV1 (prostate)): 5.77 µM
- IC50 (Homo sapiens, 786-0, 72 h, 786O (kidney)): 9.53 µM
- IC50 (Homo sapiens, A204, 72 h, A204 (muscle)): 0.06 µM
- IC50 (Homo sapiens, A549, 72 h, A549 (lung)): 2.32 µM
- IC50 (Homo sapiens, A673, 72 h, A673 (bone)): 3.26 µM
- IC50 (Homo sapiens, A2780, 72 h, A2780 (ovary)): 3.47 µM
- IC50 (Homo sapiens, A-375, 72 h, A375 (skin)): 3.61 µM
- IC50 (Homo sapiens, A-431, 72 h, A431 (skin)): 2.52 µM
- IC50 (Homo sapiens, ACHN, ACHN (kidney)): 2.82 µM
- IC50 (Homo sapiens, ASPC1, 72 h, ASPC1 (pancreas)): > 50 µM
- IC50 (Homo sapiens, BT-20, 72 h, BT20 (breast)): 3.06 µM
- IC50 (Homo sapiens, BXPC-3, 72 h, BXPC3 (pancreas)): 4.27 µM
- IC50 (Homo sapiens, C-33-A, C33A (endometrial)): 1.46 µM
- IC50 (Homo sapiens, CAKI-1, 72 h, CAKI1 (kidney)): 1.58 µM
- IC50 (Homo sapiens, COLO 205, 72 h, COLO205 (colon)): 1.57 µM
- IC50 (Homo sapiens, COLO-678, 72 h, COLO678 (colon)): > 50 µM
- IC50 (Homo sapiens, Ca-Ski, CASKI (endometrial)): 3.06 µM
- IC50 (Homo sapiens, Caco-2, 72 h, CACO2 (colon)): > 50 µM
- IC50 (Homo sapiens, Calu-6, 72 h, CALU6 (lung)): 3.82 µM
- IC50 (Homo sapiens, DLD-1, 72 h, DLD1 (colon)): 4.02 µM
- IC50 (Homo sapiens, DU-145, 72 h, DU145 (prostate)): 1.4 µM
- IC50 (Homo sapiens, EFO-21, 72 h, EFO21 (ovary)): 4.59 µM
- IC50 (Homo sapiens, EJ-28, 72 h, EJ28 (bladder)): 4.43 µM
- IC50 (Homo sapiens, Granta-519, 72 h, GRANTA-519 (hematological)): 0.89 µM
- IC50 (Homo sapiens, HCT-15, 72 h, HCT15 (colon)): 2.14 µM
- IC50 (Homo sapiens, HCT-116, 72 h, HCT116 (colon)): 2.79 µM
- IC50 (Homo sapiens, HEK293, 72 h, HEK293 (kidney)): > 50 µM
- IC50 (Homo sapiens, HL-60, 72 h, HL-60 (hematological)): 1.63 µM
- IC50 (Homo sapiens, HT-29, 72 h, HT29 (colon)): > 50 µM
- IC50 (Homo sapiens, HT-1080, 72 h, HT1080 (connective tissue)): 2.78 µM
- IC50 (Homo sapiens, HeLa, HELA (endometrial)): > 50 µM
- IC50 (Homo sapiens, HepG2, 72 h, HEPG2 (liver)): 3.57 µM
- IC50 (Homo sapiens, Hs-578T, HS578T (breast)): > 50 µM
- IC50 (Homo sapiens, IGROV-1, 72 h, IGROV1 (ovary)): 2.14 µM
- IC50 (Homo sapiens, IMR-90, 72 h, IMR90 (lung)): 4.16 µM
- IC50 (Homo sapiens, JEG-3, 72 h, JEG3 (placenta)): > 50 µM
- IC50 (Homo sapiens, JIMT-1, 72 h, JIMT1 (breast)): 2.82 µM
- IC50 (Homo sapiens, K562, 72 h, K-562 (hematological)): > 50 µM
- IC50 (Homo sapiens, Kasumi 1, 72 h, KASUMI-1 (hematological)): 0.37 µM
- IC50 (Homo sapiens, L-363, 72 h, L-363 (hematological)): > 50 µM
- IC50 (Homo sapiens, LoVo, LOVO (colon)): 2.33 µM
- IC50 (Homo sapiens, MCF7, 72 h, MCF7 (breast)): > 50 µM
- IC50 (Homo sapiens, MDA-MB-231, 72 h, MDAMB231 (breast)): 1.45 µM
- IC50 (Homo sapiens, MDA-MB-435, 72 h, MDAMB435 (skin)): 4.74 µM
- IC50 (Homo sapiens, MDA-MB-436, 72 h, MDAMB436 (breast)): > 50 µM
- IC50 (Homo sapiens, MDA-MB-468, 72 h, MDAMB468 (breast)): > 50 µM
- IC50 (Homo sapiens, MG-63, 72 h, MG63 (bone)): > 50 µM
- IC50 (Homo sapiens, MHH-ES-1, 72 h, MHHES1 (bone)): 2.26 µM
- IC50 (Homo sapiens, MIA PaCa-2, 72 h, MIAPACA2 (pancreas)): > 50 µM
- IC50 (Homo sapiens, MINO, MINO (hematological)): 0.25 µM
- IC50 (Homo sapiens, MV4-11, 72 h, MV4-11 (hematological)): 4.77 µM
- IC50 (Homo sapiens, NCI-H23, 72 h, NCI-H23 (lung)): 7.88 µM
- IC50 (Homo sapiens, NCI-H82, 72 h, NCIH82 (lung)): 3.37 µM
- IC50 (Homo sapiens, NCI-H292, 72 h, NCIH292 (lung)): 5.76 µM
- IC50 (Homo sapiens, NCI-H460, 72 h, NCIH460 (lung)): 2.83 µM
- IC50 (Homo sapiens, OVCAR-3, 72 h, OVCAR3 (ovary)): 2.75 µM
- IC50 (Homo sapiens, OVCAR-4, 72 h, OVCAR4 (ovary)): > 50 µM
- IC50 (Homo sapiens, PLC-PRF-5, 72 h, PLCPRF5 (liver)): > 50 µM
- IC50 (Homo sapiens, Panc1005, 72 h, PANC1005 (pancreas)): > 50 µM
- IC50 (Homo sapiens, Ramos, RAMOS (hematological)): 3.01 µM
- IC50 (Homo sapiens, SAOS-2, 72 h, SAOS2 (bone)): 1.12 µM
- IC50 (Homo sapiens, SF-268, 72 h, SF268 (brain)): 2.77 µM
- IC50 (Homo sapiens, SF-295, 72 h, SF295 (brain)): > 50 µM
- IC50 (Homo sapiens, SK-BR-3, 72 h, SKBR3 (breast)): 3.5 µM
- IC50 (Homo sapiens, SK-HEP1, 72 h, SKHEP1 (liver)): 2.9 µM
- IC50 (Homo sapiens, SK-LMS-1, 72 h, SKLMS1 (uterus)): > 50 µM
- IC50 (Homo sapiens, SK-MEL-5, 72 h, SKMEL5 (skin; SKMELS [sic] in Table 9E)): > 50 µM
- IC50 (Homo sapiens, SK-MEL-28, 72 h, SKMEL28 (skin)): > 50 µM
- IC50 (Homo sapiens, SK-N-AS, SKNAS (brain)): 6.05 µM
- IC50 (Homo sapiens, SK-N-SH, SKNSH (brain)): 4.78 µM
- IC50 (Homo sapiens, SK-OV-3, 72 h, SKOV3 (ovary)): > 50 µM
- IC50 (Homo sapiens, SNB-75, 72 h, SNB75 (brain)): 4.46 µM
- IC50 (Homo sapiens, SU-DHL10, 72 h, SU-DHL-10 (hematological)): 3.24 µM
- IC50 (Homo sapiens, SU-DHL-6, 72 h, SU-DHL-6 (hematological)): 2.94 µM
- IC50 (Homo sapiens, SW-620, 72 h, SW620 (colon)): > 50 µM
- IC50 (Homo sapiens, TE-671, 72 h, TE671 (muscle)): 4.85 µM
- IC50 (Homo sapiens, THP-1, 72 h, THP-1 (hematological)): 2.96 µM
- IC50 (Homo sapiens, U2OS, U20S (bone; U2OS in Table 9E)): > 50 µM
- IC50 (Homo sapiens, U-87 MG, U87MG (brain)): 1.06 µM
- IC50 (Homo sapiens, UMUC3, 72 h, UMUC3 (bladder)): 4.2 µM
- IC50 (Homo sapiens, UO-31, 72 h, UO31 (kidney)): 3.89 µM
- IC50 (Homo sapiens, WSU-NHL, WSU-NHL (hematological)): 0.49 µM
- IC50 (NCI-H358M, NCIH358M (lung)): 2.52 µM
- IC50 (PBMC, PBMC (hematological)): > 50 µM
- IC50 (RD-ES, RDES (bone)): > 50 µM
Compound: C[C@]1(CO)O[C@@H](n2ccc(N)nc2=O)[C@@H](O)[C@@H]1O [Cpd. No. 193, 4-amino-1-((2R,3S,4S,5R)-3,4-dihydroxy-5-(hydroxymethyl)-5-methyltetrahydrofuran-2-yl)pyrimidin-2(1H)-one]

Source: US20250215039A1, “NUCLEOSIDES FOR TREATING CANCER” (PRIMEFOUR THERAPEUTICS, INC., priority 2022, published 2025)
